Experimental data taken from patent US20130266636A1, “METHODS FOR BLOCKING CELL PROLIFERATION AND TREATING DISEASES AND CONDITIONS RESPONSIVE TO CELL GROWTH INHIBITION” (THE REGENTS OF THE UNIVERSITY OF CALIFORNIA, priority 2010, published 2013).

What was measured:
phospho-S338 CRAF [1] = molecular target: T1, phospho-S338 CRAF (Mus musculus, UniProt Q99N57); assay: Phospho-S338 CRAF staining in orthotopic R40P murine pancreatic cancer tissues; assay type: in vivo, mice; conditions: systemic KG5, 3 days
T1 construct: immunofluorescent staining of phospho-S338 CRAF in orthotopic pancreatic cancer tissues untreated or systemically treated with KG5; from tissue; host or cells: orthotopic R40P murine pancreatic tumours in mice
Description: FIG. 5 illustrates the effect of KG5 on orthotopic R40P murine pancreatic tumor cells after three days, as further discussed in Example 1, below.
FIG. 5 illustrates an immunofluorescent staining of phospho-S338 CRAF in orthotopic pancreatic cancer tissues untreated or systemically treated with KG5 for 3 days.

phospho-S338 CRAF [2] = molecular target: T2, phospho-S338 CRAF (Homo sapiens, UniProt P04049); assay: Phospho-S338 CRAF staining in orthotopic brain tumor xenografts; assay type: in vivo, mice; conditions: systemic KG5 50 mg/Kg, 3 days
T2 construct: phospho-S338 CRAF in orthotopic brain tumor xenografts untreated or treated systemically with KG5; from tissue; host or cells: orthotopic U-87 glioblastoma xenografts in the brain of nude mice
Protocol: FIG. 41. Phospho-5338 CRAF is highly expressed in tumors and can be blocked by an allosteric RAF inhibitor: FIG. 41(a) Immunohistochemical staining of phospho-S338 CRAF in normal human brain and human glioblastoma tissues. Scale bar, 100 μm. FIG. 41(b) Immunohistochemical staining of phospho-S338 CRAF in orthotopic brain tumor xenografts untreated or treated systemically with KG5 (50 mg/Kg) for 3 days. Scale bar, 50 p.m. FIG. 42. Phospho-5338 CRAF promotes mitosis: FIG. 42(a) Quantification of WT and CRAF−/− cells in the G1, S and G2/M phases of the cell cycle. Data are representative of three independent experiments. […] Cells in G2/M were quantified by flow cytometry. […] FIG. 42(d) Cells at pro-metaphase were quantified using confocal microscopy. […] FIG. 42(e) HCT-116 cells were transfected with control or CRAF siRNAs and cells in G2/M were quantified by flow cytometry. […] Lysates of these cells were analyzed for CRAF expression by immunoblotting (inset). […] Quantification of cells in G2/M was performed by flow cytometry. […]
Tumors were generated by injection of RFP-labeled U-87 human glioblastoma cells (10^5 tumorcells in 2 μl of sterile PBS) into the brain of 6-8 week old female nude mice. […] Brains were harvested at day 15 and fluorescence images recorded using the IVIS-200™ imaging system (Xenogen Corp., Hopkinton, Mass.). […]

[3] = test system: human colon (HCT-116), pancreatic (Mia-Paca2, FG, XPA-1, BXPC3), breast (MDA-MB-231) and brain (U251) cancer cell lines; assay: Cell cycle analysis of proliferating tumor cell lines treated with KG5; assay type: cell-based; conditions: all proliferating tumor cell lines tested
Protocol: FIG. 40. Allosteric inhibition of RAF arrests proliferating cells at pro-metaphase. FIG. 40(a) Cell cycle analysis and G2/M quantification of human colon (HCT-116), pancreatic (Mia-Paca2, FG, XPA-1, BXPC3), breast (MDA-MB-231) and brain (U251) cancer cell lines untreated or treated for 20 hours with 5 μM of KG5. Error bars represent s.d. (n=4); * two tailed p value=0.0023 using Mann Whitney U test. FIG. 40(b) HCT-116 cells were cultured under low (30%) or high (90%) confluency and treated with 1 μM KG5 for 20 hours. […] Error bars represent s.d. (n=3); * two tailed p value=0.0021 using Mann Whitney U test. FIG. 40(c) HCT-116 and XPA-1 cells were treated for 20 hours with 1 μM of KG5, stained for α-tubulin/DNA, and cells arrested in pro-metaphase were quantified by confocal microscopy. Error bars represent s.d. (n=3); * two tailed p value=0.0008 using Mann Whitney U test. Lysates from the same cells were also analyzed by immunoblotting for the expression of the mitotic marker phospho-Histone H3 (inset). Data are representative of three independent experiments.
Cell cycle analysis was performed by flow cytometry following propidium iodide staining. Briefly, cells were harvested, fixed with ice cold methanol, treated for 45 min with 10 μg/ml of RNase and resuspended in PBS containing 10 μg/ml of PI, and analyzed by flow cytometry. […]

T2 sequence (P04049 whole entry): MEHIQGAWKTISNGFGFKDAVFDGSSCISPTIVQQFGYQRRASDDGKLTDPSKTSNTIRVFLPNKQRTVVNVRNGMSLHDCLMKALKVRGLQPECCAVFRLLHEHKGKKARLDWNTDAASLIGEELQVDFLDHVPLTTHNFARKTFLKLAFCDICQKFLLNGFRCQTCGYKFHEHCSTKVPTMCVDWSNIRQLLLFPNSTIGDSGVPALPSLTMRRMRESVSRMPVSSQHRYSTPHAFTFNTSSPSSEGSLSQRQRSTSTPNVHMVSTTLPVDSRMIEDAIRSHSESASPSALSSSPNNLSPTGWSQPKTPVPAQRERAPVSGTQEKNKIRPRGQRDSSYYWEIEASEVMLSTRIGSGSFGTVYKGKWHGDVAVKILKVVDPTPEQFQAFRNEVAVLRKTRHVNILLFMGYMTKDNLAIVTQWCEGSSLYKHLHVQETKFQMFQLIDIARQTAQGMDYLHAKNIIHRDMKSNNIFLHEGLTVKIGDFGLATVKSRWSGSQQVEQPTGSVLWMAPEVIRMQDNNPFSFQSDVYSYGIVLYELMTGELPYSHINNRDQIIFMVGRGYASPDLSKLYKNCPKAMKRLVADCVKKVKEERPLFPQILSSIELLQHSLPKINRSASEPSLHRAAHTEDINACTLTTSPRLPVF

## CSc1nc(N)cc(Oc2ccc(-c3nnc(Nc4cccc(C(F)(F)F)c4)[nH]3)cc2)n1 [KG5]
phospho-S338 CRAF [1]
  phospho-S338 CRAF in orthotopic pancreatic cancer tissues: inhibits serine 338 phosphorylation of CRAF
phospho-S338 CRAF [2]
  phospho-S338 CRAF in orthotopic brain tumor tissues: qualitative decrease in phospho-5338 RAF
[3]
  mitotic arrest and cell death: mitotic arrest at pro-metaphase followed by cell death
  phospho-S338 CRAF: inhibition of phospho-S338 CRAF
